According to paper PMC9599461, “Stereoselectivity in the Membrane Transport of Phenylethylamine Derivatives by Human Monoamine Transporters and Organic Cation Transporters 1, 2, and 3” (Biomolecules, 2022):
Read-outs that look alike come from different tables or passages of the source.

What was measured:
OCT2 [1] = target: T1, OCT2 (Homo sapiens, UniProt O15244); test: Stereoselective uptake into OCT2 (wild-type)-overexpressing HEK293 cells; conditions: for Vmax ± SEM: net uptake; for Clint ± SEM: OCT2, quotient of vmax over Km
T1 sequence (O15244 1-555 S270A): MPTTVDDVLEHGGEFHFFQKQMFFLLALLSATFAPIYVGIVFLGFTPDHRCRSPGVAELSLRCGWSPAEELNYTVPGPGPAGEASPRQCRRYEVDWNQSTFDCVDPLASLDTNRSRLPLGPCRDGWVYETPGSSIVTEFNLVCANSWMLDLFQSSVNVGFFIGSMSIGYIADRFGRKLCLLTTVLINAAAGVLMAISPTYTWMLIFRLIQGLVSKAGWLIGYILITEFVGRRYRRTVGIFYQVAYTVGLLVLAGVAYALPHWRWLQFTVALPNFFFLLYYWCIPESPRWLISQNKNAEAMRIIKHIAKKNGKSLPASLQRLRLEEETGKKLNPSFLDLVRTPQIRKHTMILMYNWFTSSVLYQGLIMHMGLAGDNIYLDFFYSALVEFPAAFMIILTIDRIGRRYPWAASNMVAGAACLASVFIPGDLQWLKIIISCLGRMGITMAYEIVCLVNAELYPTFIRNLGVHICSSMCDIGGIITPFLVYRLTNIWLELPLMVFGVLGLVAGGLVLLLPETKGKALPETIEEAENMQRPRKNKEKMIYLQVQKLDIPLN

OCT2 [2] = target: T2, OCT2 (Homo sapiens, UniProt O15244, S270A); test: as above; conditions: OCT2, ratio between enantiomers
T2 sequence (O15244 1-555 S270A): T1 sequence (O15244 1-555 S270A)

OCT2 A270S variant = test: Stereoselective uptake into OCT2 A270S variant-overexpressing HEK293 cells; conditions: OCT2 wild-type versus A270S, 100 μM racemic substance, two minutes;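 further: uptake into HEK293 cells stably overexpressing human OCT2 variants, intracellular enantiomers quantified by chiral HPLC-MS/MS and normalized to total protein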
OCT1 = target: T3, OCT1 (Homo sapiens, UniProt O15245); test: Stereoselective uptake into OCT1-overexpressing HEK293 cells; conditions: for Vmax ± SEM: net uptake; for Clint ± SEM: quotient of vmax over Km; for Stereoselectivity Vmax: given as for (R) or for 1;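 on all read-outs here: enantiomers quantified inside cells by chiral HPLC-MS/MS, uptake normalized to total protein from bicinchoninic acid assay, substrates applied in HBSS+ buffer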
T3 sequence (O15245 1-554): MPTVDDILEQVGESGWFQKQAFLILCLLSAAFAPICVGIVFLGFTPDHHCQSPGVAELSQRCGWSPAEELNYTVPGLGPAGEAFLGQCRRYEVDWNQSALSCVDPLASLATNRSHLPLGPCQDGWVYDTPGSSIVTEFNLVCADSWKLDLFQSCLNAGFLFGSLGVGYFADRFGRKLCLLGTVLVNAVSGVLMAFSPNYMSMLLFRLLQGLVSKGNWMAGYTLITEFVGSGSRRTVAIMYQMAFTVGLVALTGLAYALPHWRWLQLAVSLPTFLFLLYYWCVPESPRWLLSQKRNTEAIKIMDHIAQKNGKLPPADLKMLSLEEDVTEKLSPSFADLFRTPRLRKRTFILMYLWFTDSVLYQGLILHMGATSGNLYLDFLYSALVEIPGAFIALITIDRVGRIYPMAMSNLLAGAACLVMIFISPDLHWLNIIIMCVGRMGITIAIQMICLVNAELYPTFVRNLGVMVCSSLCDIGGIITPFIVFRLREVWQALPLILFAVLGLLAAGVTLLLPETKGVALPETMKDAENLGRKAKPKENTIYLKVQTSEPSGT

SERT [3] = target: T4, SERT (Homo sapiens, UniProt P31645);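 further: uptake into HEK293 cells stably expressing human SERT over 2 min, enantiomers measured in cell lysate by chiral HPLC-MS/MS, normalized to total protein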
T4 sequence (P31645 whole entry): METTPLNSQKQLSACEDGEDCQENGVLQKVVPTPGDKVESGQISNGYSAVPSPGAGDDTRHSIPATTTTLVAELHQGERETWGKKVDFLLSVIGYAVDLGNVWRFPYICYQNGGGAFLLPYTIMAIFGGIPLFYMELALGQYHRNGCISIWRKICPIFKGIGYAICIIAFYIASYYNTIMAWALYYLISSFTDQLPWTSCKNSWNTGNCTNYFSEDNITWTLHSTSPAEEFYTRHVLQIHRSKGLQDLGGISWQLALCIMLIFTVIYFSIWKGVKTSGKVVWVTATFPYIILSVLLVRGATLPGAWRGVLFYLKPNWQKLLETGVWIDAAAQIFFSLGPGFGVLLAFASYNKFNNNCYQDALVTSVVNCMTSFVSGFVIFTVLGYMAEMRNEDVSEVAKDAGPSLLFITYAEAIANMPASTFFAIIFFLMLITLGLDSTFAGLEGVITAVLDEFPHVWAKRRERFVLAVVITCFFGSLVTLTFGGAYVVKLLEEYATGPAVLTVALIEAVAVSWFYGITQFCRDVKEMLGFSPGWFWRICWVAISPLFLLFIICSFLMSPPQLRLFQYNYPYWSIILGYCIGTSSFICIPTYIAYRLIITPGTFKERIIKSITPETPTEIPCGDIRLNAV

DAT = DAT (Homo sapiens, UniProt Q01959); test: Stereoselective uptake into DAT-overexpressing HEK293 cells; conditions: DAT;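 further: intracellular accumulation measured by chiral HPLC-MS/MS in stably transfected HEK293 cells, normalized to total protein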
DAT, sequence (Q01959 whole entry): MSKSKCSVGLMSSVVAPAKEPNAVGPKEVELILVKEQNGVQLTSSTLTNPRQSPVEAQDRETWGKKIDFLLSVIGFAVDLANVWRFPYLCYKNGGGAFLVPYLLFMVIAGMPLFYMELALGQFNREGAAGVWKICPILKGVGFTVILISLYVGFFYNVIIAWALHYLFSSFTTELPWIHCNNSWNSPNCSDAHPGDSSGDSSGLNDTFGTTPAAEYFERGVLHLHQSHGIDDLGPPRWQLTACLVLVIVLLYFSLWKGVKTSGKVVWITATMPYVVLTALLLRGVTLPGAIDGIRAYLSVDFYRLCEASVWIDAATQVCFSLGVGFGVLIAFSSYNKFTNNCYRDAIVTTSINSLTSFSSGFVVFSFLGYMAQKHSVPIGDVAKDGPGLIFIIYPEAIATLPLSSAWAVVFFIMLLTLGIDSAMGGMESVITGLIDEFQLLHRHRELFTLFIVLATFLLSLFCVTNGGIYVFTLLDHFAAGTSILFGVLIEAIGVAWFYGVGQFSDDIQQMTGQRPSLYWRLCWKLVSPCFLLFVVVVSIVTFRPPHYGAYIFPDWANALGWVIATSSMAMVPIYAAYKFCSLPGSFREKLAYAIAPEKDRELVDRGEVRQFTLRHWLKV
Method: (§1) All transport experiments were carried out in HEK293 cells stably overexpressing human MATs or OCTs. […] All cells were regularly cultivated in DMEM supplemented with 10% (v/v) FCS, penicillin (100 U/mL) and streptomycin (100 μg/mL)and kept in culture for no longer than 30 passages.
(§2) For the uptake experiments, 300,000 cells were plated in poly-D-lysine precoated 24-well plates 48 h ahead of the transport experiment. On the day of experiment, cells were initially washed once with 37 °C pre-warmed HBSS+ (Hanks buffered salt solution supplemented with 10 mM HEPES) and subsequently incubated with the substrates dissolved in pre-warmed HBSS+ for exactly two minutes. Incubation was stopped by adding ice-cold HBSS+ followed by two washing steps. After this, cells were lysed with 80% acetonitrile containing 10 ng/mL milnacipran as internal standard for high-performance liquid chromatography coupled to tandem mass spectrometry (HPLC-MS/MS) analysis. For every experiment, two additional wells per cell line were lysed using RIPA buffer for protein quantification. Total protein was quantified using the bicinchoninic acid assay [42]. This was later used for normalization of the uptake data.
(§3) Intracellularly accumulated test substances were quantified by HPLC-MS/MS analysis using a Shimadzu Nexera HPLC system with a SIL-30AC autosampler, a CTO-20AC column oven, a LC-30AD pump, and a CBM-20A controller (Shimadzu, Kyoto, Japan). Stereoselective chromatography was carried out on a [sequence] CBH HPLC column (100 × 3 mm inner dimension with 5 μM particle size; Sigma-Aldrich, Darmstadt, Germany) with a corresponding 10 × 3 mm guard column. Reversed phased chromatography was carried out using an ammonium acetate (NH4Ac) buffered aqueous mobile phase with isopropyl alcohol (IPA) as organic solvent. […] The order of elution of the enantiomers was obtained from available reference literature [43] or by applying enantiopure reference compounds to the chiral HPLC. […] Given the structural similarity of the investigated substances and the fact that separation was performed on the same column with almost identical mobile phases, we assume that this order of elution for our compound set is always the (R)- before the (S)-enantiomer.
(§4) Detection was performed with an API 4000 tandem mass spectrometer (AB SCIEX, Darmstadt, Germany) operating in multiple-reaction-monitoring mode. Quantification was performed using the Analyst 1.6.2 software (AB SCIEX, Darmstadt, Germany) and quantified by comparison to standard curves with known concentrations.
(§5) All uptake data were normalized to protein content to account for variation in the number of seeded sells. Transporter-mediated net uptake was calculated by subtracting uptake into empty vector-transfected control cells from uptake into transporter-transfected cells. Kinetic parameters were then determined after non-linear regression following the Michaelis–Menten equation (v = vmax × [S]/(Km + [S])) using GraphPad Prism (Version 5.01 for Windows, GraphPad Software, La Jolla, CA, USA). Vmax refers to the maximum transport velocity and Km is defined as the substance concentration required to reach half of vmax. The intrinsic clearance Clint was calculated as the quotient of vmax over Km.

NET = NET (Homo sapiens, UniProt P23975); test: Stereoselective uptake into NET-overexpressing HEK293 cells; conditions: for Vmax ± SEM: net uptake; for Clint ± SEM: quotient of vmax over Km; for Stereoselectivity ClInt / Stereoselectivity Vmax: given as for (S) or for 2;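 on all read-outs here: intracellular enantiomers quantified in cell lysates by chiral HPLC-MS/MS after a 2 min substrate incubation, with uptake normalized to total cellular protein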
NET, sequence (P23975 whole entry): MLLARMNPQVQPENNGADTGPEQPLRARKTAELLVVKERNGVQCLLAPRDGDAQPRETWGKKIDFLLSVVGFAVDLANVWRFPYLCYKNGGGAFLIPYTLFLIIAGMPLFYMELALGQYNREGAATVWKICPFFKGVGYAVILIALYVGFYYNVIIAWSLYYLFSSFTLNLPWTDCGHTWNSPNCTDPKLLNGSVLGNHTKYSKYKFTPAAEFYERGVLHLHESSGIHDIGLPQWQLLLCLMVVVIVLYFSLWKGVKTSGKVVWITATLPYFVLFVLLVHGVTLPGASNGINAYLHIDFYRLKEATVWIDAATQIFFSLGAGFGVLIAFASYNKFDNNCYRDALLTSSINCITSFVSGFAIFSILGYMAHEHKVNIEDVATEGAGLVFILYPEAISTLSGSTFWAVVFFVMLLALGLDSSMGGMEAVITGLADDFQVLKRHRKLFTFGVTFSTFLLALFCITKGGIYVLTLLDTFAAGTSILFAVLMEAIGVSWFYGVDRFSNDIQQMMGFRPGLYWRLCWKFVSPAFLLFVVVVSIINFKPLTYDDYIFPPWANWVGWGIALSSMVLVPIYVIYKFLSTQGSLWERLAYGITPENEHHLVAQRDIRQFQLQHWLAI
Method: as §1, §2, §3, §4, §5

OCT3 = target: T5, OCT3 (Homo sapiens, UniProt O75751); test: Stereoselective uptake into OCT3-overexpressing HEK293 cells; conditions: for Clint ± SEM: quotient of vmax over Km; for Stereoselectivity Vmax: given as for (R) or for 1;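 on all read-outs here: intracellular accumulation in HEK293 cells measured by chiral HPLC-MS/MS after a 2 min substrate exposure at 37 °C, uptake normalized to total protein (bicinchoninic acid assay)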
T5 sequence (O75751 1-556): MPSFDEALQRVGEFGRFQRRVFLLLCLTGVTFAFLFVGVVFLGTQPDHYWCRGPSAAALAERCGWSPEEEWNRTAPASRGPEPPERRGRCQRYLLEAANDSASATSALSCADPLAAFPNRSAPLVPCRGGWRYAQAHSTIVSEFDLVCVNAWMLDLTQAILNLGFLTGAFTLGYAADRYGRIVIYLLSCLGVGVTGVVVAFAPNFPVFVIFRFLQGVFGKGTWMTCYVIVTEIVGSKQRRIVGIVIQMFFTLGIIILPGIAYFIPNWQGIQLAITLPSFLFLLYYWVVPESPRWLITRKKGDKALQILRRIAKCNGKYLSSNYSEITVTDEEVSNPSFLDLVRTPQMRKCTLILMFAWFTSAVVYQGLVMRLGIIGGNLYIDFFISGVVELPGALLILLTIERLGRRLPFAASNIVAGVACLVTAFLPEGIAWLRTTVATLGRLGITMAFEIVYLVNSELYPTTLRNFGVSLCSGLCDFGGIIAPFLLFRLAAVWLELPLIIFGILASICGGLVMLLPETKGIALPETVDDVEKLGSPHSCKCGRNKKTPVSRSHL

SERT [4] = target: T4, SERT; test: Stereoselective uptake into SERT-overexpressing HEK293 cells; conditions: for Clint ± SEM: SERT, quotient of vmax over Km;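 on all read-outs here: uptake into HEK293 cells stably expressing human SERT over 2 min, enantiomers measured in cell lysate by chiral HPLC-MS/MS, normalized to total protein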
[5] = HEK293 cells overexpressing human OCT2, racemic substrate, two minutes
[6] = HEK293 cells overexpressing human OCT1, racemic substrate, two minutes
[7] = OCT1, ratio between enantiomers
[8] = OCT3, ratio between enantiomers
[9] = OCT3, ratio between enantiomers, given as for (R) or for 1 (first-eluting)
[10] = given as for (R) or for 1 (first-eluting)
[11] = ratio between enantiomers, given as for (S) or for 2
[12] = HEK293 cells overexpressing human NET, racemic substrate, two minutes

CNCC(O)c1ccc(O)c(OC)c1 (single isomer, unassigned) [Metanephrine-2, Metanephrine]
Vmax ± SEM (OCT2 [1]; [5]): 528 pmol × mg Protein^−1 × min^−1 | Clint ± SEM (OCT2 [1]): 7.75 mL × g Protein^−1 × min^−1 | Stereoselectivity ClInt (OCT2 [2]; given as for (R) or for 1): 2.66 fold | Stereoselectivity Vmax (OCT2 [2]; given as for (R) or for 1): 2.13 fold | Stereoselectivity Km (OCT2 [2]; given as for (S) or for 2 (second-eluting)): 1.25 fold | Transporter selectivity (OCT2 A270S variant; given as for A270S, listed as (S)-Metanephrine): 1.47 fold | Vmax ± SEM (OCT1; [6]): 1018 pmol × mg Protein^−1 × min^−1 | Clint ± SEM (OCT1; OCT1): 6.97 mL × g Protein^−1 × min^−1 | Stereoselectivity Vmax (OCT1; [7]): 1.06 fold | Stereoselectivity Km (OCT1; OCT1, ratio between enantiomers, given as for (S) or for 2 (second-eluting)): 1.09 fold | Stereoselectivity ClInt (OCT1; human, 2 min): 1.16 fold | Stereoselectivity ClInt (SERT [3]; human): 1.01 fold | Saturable net uptake (DAT; result in words): No saturable net uptake | Saturable net uptake (NET; NET, result in words): No saturable net uptake | Clint ± SEM (OCT3; OCT3): 26.0 mL × g Protein^−1 × min^−1 | Stereoselectivity Vmax (OCT3; [8]): 1.19 fold | Stereoselectivity ClInt (OCT3; OCT3, ratio between enantiomers, given as for (R) or for 1 (also 1.00-fold for 1/2)): 1.00 fold | Stereoselectivity Km (OCT3; [9]): 1.19 fold | Stereoselectivity Km (SERT [4]): 1.09 fold | Stereoselectivity Vmax (SERT [4]): 1.08 fold | Clint ± SEM (SERT [4]): 0.57 mL × g Protein^−1 × min^−1

NCC(O)c1cccc(O)c1 (single isomer, unassigned) [Norphenylephrine-2, Norphenylephrine]
Clint ± SEM (OCT2 [1]): 26.07 mL × g Protein^−1 × min^−1 | Stereoselectivity ClInt (OCT2 [2]; given as for (R) or for 1): 1.40 fold | Stereoselectivity Vmax (OCT2 [2]; given as for (R) or for 1): 2.19 fold | Stereoselectivity Km (OCT2 [2]; [10]): 1.57 fold | Transporter selectivity (OCT2 A270S variant; given as for WT, listed as (S)-Norphenylephrine): 1.12 fold | Clint ± SEM (OCT1; OCT1): 3.84 mL × g Protein^−1 × min^−1 | Stereoselectivity Vmax (OCT1; [7]): 1.08 fold | Stereoselectivity Km (OCT1; OCT1, ratio between enantiomers, given as for (R) or for 1 (first-eluting)): 1.03 fold | Stereoselectivity ClInt (OCT1; human, 2 min): 1.05 fold | Stereoselectivity ClInt (SERT [3]; human): 1.53 fold | Clint ± SEM (DAT; quotient of vmax over Km): 167 mL × g Protein^−1 × min^−1 | Stereoselectivity ClInt (DAT; [11]): 1.29 fold | Stereoselectivity Vmax (DAT; [11]): 1.55 fold | Stereoselectivity Km (DAT; ratio between enantiomers, given as for (S) or for 2 (second-eluting)): 1.20 fold | Vmax ± SEM (NET; [12]): 531 pmol × mg Protein^−1 × min^−1 | Clint ± SEM (NET; NET): 230 mL × g Protein^−1 × min^−1 | Stereoselectivity ClInt (NET; NET, ratio between enantiomers): 1.21 fold | Stereoselectivity Vmax (NET; NET, ratio between enantiomers): 1.25 fold | Clint ± SEM (OCT3; OCT3): 3.32 mL × g Protein^−1 × min^−1 | Stereoselectivity Vmax (OCT3; [8]): 3.88 fold | Stereoselectivity Km (OCT3; [9]): 1.17 fold | Stereoselectivity ClInt (OCT3; human, 2 min): 3.32 fold | Stereoselectivity Km (SERT [4]): 1.20 fold | Stereoselectivity Vmax (SERT [4]): 1.27 fold | Clint ± SEM (SERT [4]): 1.83 mL × g Protein^−1 × min^−1

C[C@@H]1NCCc2cc(O)c(O)cc21 [Salsolinol-2, Salsolinol]
Vmax ± SEM (OCT2 [1]; [5]): 9160 pmol × mg Protein^−1 × min^−1 | Clint ± SEM (OCT2 [1]): 42.7 mL × g Protein^−1 × min^−1 | Km (OCT2 [1]; read-out: Km ± SEM, HEK293 cells overexpressing human OCT2, racemic substrate, two minutes, net uptake minus empty vector control): 213 µM | Stereoselectivity Km (OCT2 [2]; [10]): 1.04 fold | Stereoselectivity ClInt (OCT2 [2]; given as for (S) or for 2): 1.05 fold | Stereoselectivity Vmax (OCT2 [2]; given as for (S) or for 2): 1.01 fold | Transporter selectivity (OCT2 A270S variant; given as for WT, listed as (S)-Salsolinol): 1.45 fold | Vmax ± SEM (OCT1; [6]): 1426 pmol × mg Protein^−1 × min^−1 | Clint ± SEM (OCT1; OCT1): 10.9 mL × g Protein^−1 × min^−1 | Stereoselectivity ClInt (OCT1; OCT1, ratio between enantiomers, given as for (R) or for 1 (also 1.00-fold for 1/2)): 1.00 fold | Km (OCT1; read-out: Km ± SEM, HEK293 cells overexpressing human OCT1, racemic substrate, two minutes, net uptake minus empty vector control): 131 µM | Stereoselectivity ClInt (SERT [3]): 2.48 fold | Vmax ± SEM (NET; [12]): 151 pmol × mg Protein^−1 × min^−1 | Clint ± SEM (NET; NET): 1.48 mL × g Protein^−1 × min^−1 | Stereoselectivity ClInt (NET; NET, ratio between enantiomers): 1.19 fold | Stereoselectivity Vmax (NET; NET, ratio between enantiomers): 1.35 fold | Stereoselectivity Km (NET; NET, ratio between enantiomers, given as for (S) or for 2 (second-eluting)): 1.13 fold | Km (NET; read-out: Km ± SEM, HEK293 cells overexpressing human NET, racemic substrate, two minutes, net uptake minus empty vector control): 102 µM | Stereoselectivity ClInt (OCT3): 1.21 fold | Vmax ± SEM (OCT3; HEK293 cells overexpressing human OCT3, racemic substrate, two minutes, net uptake): 697 pmol × mg Protein^−1 × min^−1 | Clint ± SEM (OCT3; OCT3): 3.15 mL × g Protein^−1 × min^−1 | Stereoselectivity Vmax (OCT3; [8]): 1.01 fold | Stereoselectivity Km (OCT3; OCT3, ratio between enantiomers, given as for (S) or for 2 (second-eluting)): 1.20 fold | Km (OCT3; read-out: Km ± SEM, HEK293 cells overexpressing human OCT3, racemic substrate, two minutes, net uptake minus empty vector control): 222 µM | Stereoselectivity Km (SERT [4]): 1.85 fold | Stereoselectivity Vmax (SERT [4]): 1.34 fold | Vmax ± SEM (SERT [4]; HEK293 cells overexpressing human SERT, racemic substrate, two minutes, net uptake): 171 pmol × mg Protein^−1 × min^−1 | Clint ± SEM (SERT [4]): 0.71 mL × g Protein^−1 × min^−1 | Km (SERT [4]; read-out: Km ± SEM, HEK293 cells overexpressing human SERT, racemic substrate, two minutes, net uptake minus empty vector control): 239 µM
